The source of these data is article doi:10.1101/2021.11.16.468530v1 (biorxiv, 2021).

The target in this test is T1, human topoisomerase I (TOP1) (Homo sapiens, UniProt P11387).
T1 sequence (P11387 2-765): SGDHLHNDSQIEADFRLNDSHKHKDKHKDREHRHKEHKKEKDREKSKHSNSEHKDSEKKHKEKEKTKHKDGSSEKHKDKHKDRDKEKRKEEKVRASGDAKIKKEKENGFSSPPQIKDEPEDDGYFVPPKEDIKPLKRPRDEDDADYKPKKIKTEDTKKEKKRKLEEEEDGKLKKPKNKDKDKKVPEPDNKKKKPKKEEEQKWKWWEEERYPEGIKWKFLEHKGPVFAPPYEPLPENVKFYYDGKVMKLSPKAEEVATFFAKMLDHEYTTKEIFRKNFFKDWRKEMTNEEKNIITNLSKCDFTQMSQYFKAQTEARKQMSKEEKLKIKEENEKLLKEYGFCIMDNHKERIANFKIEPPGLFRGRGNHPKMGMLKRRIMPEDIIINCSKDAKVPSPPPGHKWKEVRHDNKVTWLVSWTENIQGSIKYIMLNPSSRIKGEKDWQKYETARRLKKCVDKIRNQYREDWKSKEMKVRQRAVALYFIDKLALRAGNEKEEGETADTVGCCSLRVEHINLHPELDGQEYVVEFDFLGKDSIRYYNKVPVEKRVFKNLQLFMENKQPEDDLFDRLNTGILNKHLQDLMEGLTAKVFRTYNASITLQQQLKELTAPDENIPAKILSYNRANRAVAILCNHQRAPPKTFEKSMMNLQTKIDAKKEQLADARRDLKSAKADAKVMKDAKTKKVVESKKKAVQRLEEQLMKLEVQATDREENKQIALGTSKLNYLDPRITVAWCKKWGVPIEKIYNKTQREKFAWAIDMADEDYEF
Nature of the test: supercoiled plasmid DNA relaxation, agarose gel. It counts as biochemical.

The structures appear in SMILES notation.

`O=C(Nc1ccc(Sc2ccc(N=Nc3c(O)c(S(=O)(=O)O)cc4cc(S(=O)(=O)O)ccc34)cc2)cc1)c1ccc(N=Nc2c(O)c(S(=O)(=O)O)cc3cc(S(=O)(=O)O)ccc23)cc1` [NSC65860] had an IC50 of 0.89 µM.
For the compound `O=c1c(O)c(-c2cc(O)c(O)c(O)c2)oc2cc(O)cc(O)c12` [myricetin], the IC50 is ~10 µM.

As a reminder, the IC50 is the concentration that inhibits the measured activity by half. A low value points to inhibition by little substance.
